Assay results taken from patent US7767238B2, “Beverage composition and method of preventing degradation of vitamins in beverages” (PepsiCo, Inc., priority 2005, dated 2010).
Blank lines part the entries; values can stand above or below the compound they belong to.

Columns and labels:
[1] = Vitamin A Palmitate remaining in non-carbonated pink lemonade 5% juice, PET bottle, store fluorescent light (Example 3); type: physicochemical; conditions: 66 ppm stabilizer, start 3500 IU, one week fluorescent light, Light control 737, Dark control 3215
Experimental: (§1) A clear lemon-lime (L/L) carbonated soft drink (CSD) with Vitamin C and ethylene-diaminetetraacetic acid (EDTA) was prepared. Seven samples of the carbonated soft drink were prepared each containing 2500 IU of Vitamin A Palmitate which can be obtained from Roche and the amount of rutin, SanMelin or blueberry leaves extract indicated in Table 8. All samples were packaged in clear glass containers. The Dark and Light samples were each free of rutin, SanMelin or blueberry leaves extract. The Dark sample was shielded from light. All the other samples, including the Light sample were exposed to typical store fluorescent light. The values in the table were all measured at one week.
A non-carbonated pink lemonade beverage composed of 5% juice was prepared. Seven samples like the ones in Examples 1 and 2 were prepared except that the starting amount of Vitamin A Palmitate was 3500 IU and the samples were packaged in PET containers.

[2] = Vitamin A Palmitate remaining in clear lemon-lime CSD with Vitamin C and EDTA, clear glass, store fluorescent light (Example 1); type: physicochemical; conditions: start 2500 IU, one week fluorescent light, Light control 576, Dark control 2300
Experimental: as §1

[3] = Vitamin A Palmitate remaining in clear lemon-lime CSD with Vitamin C and EDTA, clear glass, store fluorescent light (Example 2); type: physicochemical; conditions: 100 ppm stabilizer, start 2000 IU, one week fluorescent light, Light control 548, Dark control 1870
Experimental: as §1
Example 2 differed from Example 1 in that the starting amount of Vitamin A Palmitate was 2000 IU.

[4] = Vitamin stabilization ability, observed rank order; conditions: more hydroxyl groups on the aryl rings enhance vitamin stabilization
[5] = Vitamin A remaining in fruit juice in 20 oz. PET bottle under store fluorescent light; type: physicochemical; conditions: freshly prepared 3500 IU fruit juice, typical store fluorescent light, one week, no stabilizer

IU of Vitamin A Palmitate [1]: 1824 IU
IU of Vitamin A Palmitate ([2]; 33 ppm stabilizer): 878 IU
IU of Vitamin A Palmitate ([2]; 66 ppm stabilizer): 1215 IU
IU of Vitamin A Palmitate [3]: 856 IU
Compound: C[C@@H]1O[C@@H](OC[C@H]2O[C@@H](Oc3c(-c4ccc(O)c(O)c4)oc4cc(O)cc(O)c4c3=O)[C@H](O)[C@@H](O)[C@@H]2O)[C@H](O)[C@H](O)[C@H]1O [Rutin, rutin]

Compound: O=C(O)/C=C/c1ccc(O)c(O)c1 [caffeic acid]
vitamin stabilization ability (rank order) [4]: caffeic acid (2 hydroxyl groups)>ferulic acid>coumaric acid>cinnamic acid

Compound: O=C(O)C=Cc1ccccc1 [cinnamic acid]
vitamin stabilization ability (rank order) [4]: caffeic acid (2 hydroxyl groups)>ferulic acid>coumaric acid>cinnamic acid

Compound: O=C(O)/C=C/c1ccc(O)cc1 [coumaric acid]
vitamin stabilization ability (rank order) [4]: caffeic acid (2 hydroxyl groups)>ferulic acid>coumaric acid>cinnamic acid

Compound: COc1cc(/C=C/C(=O)O)ccc1O [ferulic acid]
vitamin stabilization ability (rank order) [4]: caffeic acid (2 hydroxyl groups)>ferulic acid>coumaric acid>cinnamic acid

remaining Vitamin A content [5]: approximately 1000 IU
Compound: Vitamin A
